Source: paper PMC8586704 (Frontiers in Chemistry, 2021)
≈ marks a conversion by molar mass, not a printed value. Read-outs that look alike come from different tables or passages of the source. Starred links: 1 amine or outer side, 2 acyl side, 3 side chain; linkers in the order of their positions; H or OH if unused. Non-standard residues stand in square brackets, D forms with d. Residues, ends and D or L forms follow the SMILES beside them. X2 = COC(=O)[C@@H](NC(=O)[C@@H](C)C[C@@H](C(=O)[*:2])N(C)[*:1])[C@@H](C)O; Trp(1-(1,1-Me2-allyl)) = C=CC(C)(C)n1cc(C[C@H](N)C(=O)O)c2ccccc21; NMeGlu(4S-Me) = C[C@@H](C[C@@H](C(=O)[*:2])N(C)[*:1])C(=O)[*:3]; Tyr(3-NO2) = N[C@@H](Cc1ccc(O)c([N+](=O)[O-])c1)C(=O)O; Gly(E-crotyl) = C/C=C/C[C@H](N)C(=O)O; NMeL = CN[C@@H](CC(C)C)C(=O)O

Legend:
[1] = tested on: M. tuberculosis H37Rv; assay: Antitubercular activity assay, broth dilution, auto-luminescent strain; format: cell-based, Mycobacterium tuberculosis
[2] = tested on: MCF-7; assay: cells; format: cell-based; details: Homo sapiens, MCF7; breast adenocarcinoma cell line
[3] = tested on: HeLa; assay: cells; format: cell-based; details: Homo sapiens, cervical carcinoma cell line
[4] = tested on: HepG2; assay: cells; format: cell-based; details: Homo sapiens, hepatocellular carcinoma cell line
[5] = tested on: A549; assay: Cytotoxicity assay (CCK-8); format: cell-based; details: Homo sapiens, lung cancer cell line
[6] = tested on: HCT116; assay: cells; format: cell-based; details: Homo sapiens, HCT-116; colon cancer cell line
[7] = tested on: L02; assay: cells; format: cell-based; details: normal human hepatic cell line
[8] = tested on: Huvec-12; assay: Cytotoxicity assay (CCK-8); format: cell-based; details: normal human umbilical vein endothelial cell line
[9] = tested on: five human cancer cell lines and two normal cell lines; details: MCF-7, A549, HCT116, L02
[10] = tested on: five human cancer cell lines and two normal cell lines; assay: cells
[11] = tested on: M. tuberculosis H37Rv; parameters: method as in Ma et al., 2017; details: ref Ma et al., 2017; cited from earlier work
[12] = Mycobacterium tuberculosis, H37RV, Day 7th, read-out: MICs against H37Rv, Day 7th
[13] = Mycobacterium tuberculosis, H37RV, Day 14th, read-out: MICs against H37Rv, Day 14th

SMILES | MIC ([1]; Day 14th, read-out: MICs against H37Rv, Day 14th) | MIC [1, 12] | MIC [1, 13] | IC50 [2] | IC50 [3] | IC50 [4] | IC50 [5] | IC50 [6] | IC50 [7] | IC50 [8] | promotion of cytotoxicity compared with ilamycin F [9] | IC50 ([10]; read-out: IC50 against MCF-7, A549, HCT116, and L02) | IC50 ([10]; read-out: IC50 against five human cancer cell lines and two normal cell lines) | MIC ([1]; Mycobacterium tuberculosis, H37RV, Day 3rd, read-out: MICs against H37Rv, Day 3rd) | MIC against M. tuberculosis H37Rv [11]
C=CC(C)(C)n1cc(C[C@@H]2NC(=O)[C@H](C/C=C/C)NC(=O)[C@H](CC(C)C)NC(=O)[C@H](C[C@H](C)C(=O)N[C@H](C(=O)OC)[C@@H](C)O)N(C)C(=O)[C@H](C)NC(=O)[C@H](Cc3ccc(O)c([N+](=O)[O-])c3)NC(=O)[C@H](CC(C)C)N(C)C2=O)c2ccccc21 [Compound 1, ilamycin NJL1] (cyclo(A[X2]L[Gly(E-crotyl)][Trp(1-(1,1-Me2-allyl))][NMeL][Tyr(3-NO2)])) | 1.7 µM (≈ 1.97 µg/mL) | 1.7 µM (≈ 1.97 µg/mL) | 1.6 to 1.7 µM (≈ 1.85 to 1.97 µg/mL) | 9 µM | 11.3 µM | 17.7 µM | 5.7 µM | 7.2 µM | 6.5 µM | 10.3 µM | 3–8 fold | 5.7 to 9 µM | 5.7 to 11.3 µM | – | –
C=CC(C)(C)n1cc(C[C@@H]2NC(=O)[C@H](C/C=C/C)NC(=O)[C@H](CC(C)C)NC(=O)[C@H](C[C@H](C)C(=O)O)N(C)C(=O)[C@H](C)NC(=O)[C@H](Cc3ccc(O)c([N+](=O)[O-])c3)NC(=O)[C@H](CC(C)C)N(C)C2=O)c2ccccc21 [ilamycin F, reference compound] (cyclo(A[NMeGlu(4S-Me)]L[Gly(E-crotyl)][Trp(1-(1,1-Me2-allyl))][NMeL][Tyr(3-NO2)])) | – | 15.4 µM (≈ 16.1 µg/mL) | 1.9 µM (≈ 1.98 µg/mL) | 32.2 µM | 31 µM | > 50 µM | 47 µM | 44.8 µM | 43.9 µM | 46.1 µM | – | – | – | 30.7 µM (≈ 32 µg/mL) | 1.2 µM (≈ 1.25 µg/mL)
